Experimental data as given in patent publication US11787766B2, “Compound having PD-L1 inhibitory activity, preparation method therefor and use thereof” (SHANGHAI ENNOVABIO PHARMACEUTICALS CO., LTD., priority 2017, dated 2023).

molecular target: PD-L1 (Homo sapiens (Human), UniProt Q9NZQ7); test: PD-1/PD-L1 homogeneous time-resolved fluorescence (HTRF) binding assay; conditions: Cisbio PD1/PD-L1 binding assay kit
Text: PD-1/PD-L1 homogeneous time-resolved fluorescence (HTRF) detection technology was used to detect the binding ability of the compound to PD-L1.
PD1/PD-L1 binding assay kit (Cisbio, Cat #63ADK000CPDEC) was used, which includes two proteins, Tag 1-PD-L1 and Tag 2-PD-1, and two antibodies, Anti-Tag1-Eu^3+ and Anti-Tag2-XL 665. Assay principle: Anti-tag1-Eu^3+ is the HTRF donor, and Anti-Tag2-XL 665 is the HTRF acceptor. When Tag 1-PD-L1 and Tag 2-PD-1 interact, the added HTRF donor and the acceptor are close to each other. After the donor receives the excitation energy, it transfers part of the energy to the acceptor, thus producing 665 nm emission signal. When the compound is added to block the PD1/PD-L1 interaction, only 620 nm emission light was detected. The inhibitory effect of the compound was determined by analyzing the ratio of 665 nm/620 nm. Tag 1-PD-L1 was diluted with Diluent buffer (cat #62DLBDDF) to a working concentration of 10 nM, Tag 2-PD-1 was diluted with Diluent buffer to a working concentration of 500 nM, and Anti-Tag1-Eu^3+ was diluted with detection buffer (cat #62DB1FDG) by 1:100, Anti-Tag2-XL 665 was diluted with detection buffer by 1:20, and the test compound was diluted with Diluent buffer to a final concentration of 2×. In a 384-well plate, 2 μL of compound was added to each well, and then 4 μL of Tag 1-PD-L1, 4 μL of Tag 2-PD-1 were added and incubated at room temperature for 15 minutes. 5 μL Anti-Tag1-Eu^3+ and 5 μL Anti-Tag2-XL 665 were added and incubated overnight at room temperature, and detected with BioTek Synergy™ Neo2 Multifunctional Microplate Reader to obtain the ratio of 665 nm/620 nm. The IC50 curve was fitted by GraphPad Prism 5.02.

Sequence of PD-L1 (Q9NZQ7 19-238): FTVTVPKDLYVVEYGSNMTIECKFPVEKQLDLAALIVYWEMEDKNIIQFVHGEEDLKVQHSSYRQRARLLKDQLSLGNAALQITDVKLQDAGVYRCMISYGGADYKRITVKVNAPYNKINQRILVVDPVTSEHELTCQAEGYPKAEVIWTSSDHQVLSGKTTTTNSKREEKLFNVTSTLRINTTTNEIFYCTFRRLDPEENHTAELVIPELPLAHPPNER

Row | IC50 [nM] | SMILES
1 | < 10 | COc1nc(OCc2cccc(-c3cccc(COc4ccc(CN5C[C@H](O)[C@@H](O)C5)c(OC)n4)c3Cl)c2Cl)ccc1CN1C[C@H](O)[C@@H](O)C1 [Compound 71]
2 | < 10 | COc1nc(OCc2cccc(-c3cccc(COc4ccc(CN5CC(CC(N)=O)C5)c(OC)n4)c3Cl)c2Cl)ccc1CN1CC(CC(N)=O)C1 [Compound 76]
3 | < 10 | COc1nc(OCc2cccc(-c3cccc(COc4ccc(CN5CC(NC(C)=O)C5)c(OC)n4)c3Cl)c2Cl)ccc1CN1CC(NC(C)=O)C1 [Compound 74]
4 | < 10 | COc1nc(OCc2cccc(-c3cccc(COc4ccc(CN5CCCCC5C(=O)O)c(OC)n4)c3Cl)c2Cl)ccc1CN1CCCCC1C(=O)O (stereo not shown) [Compound 70]
5 | 10 to 100 | COc1nc(OCc2cccc(-c3cccc(COc4ccc(CN5CC[C@H](NC(C)=O)C5)c(OC)n4)c3C)c2C)ccc1CN1CC[C@H](NC(C)=O)C1 [Compound 54]
6 | < 10 | COc1nc(OCc2cccc(-c3cccc(COc4ccc(CN5C[C@@H](F)C[C@H]5C(=O)O)c(OC)n4)c3Cl)c2Cl)ccc1CN1C[C@@H](F)C[C@H]1C(=O)O [Compound 79]
7 | < 10 | COc1nc(OCc2cccc(-c3cccc(COc4ccc(CN5CC(C(N)=O)C5)c(OC)n4)c3C)c2C)ccc1CN1CC(C(N)=O)C1 [Compound 63]
8 | < 10 | COc1nc(OCc2cccc(-c3cccc(COc4ccc(CN5C[C@@H](O)C[C@H]5C(=O)O)c(OC)n4)c3F)c2C)ccc1CN1C[C@@H](O)C[C@H]1C(=O)O [Compound 66]
9 | < 10 | COc1nc(OCc2cccc(-c3cccc(COc4ccc(CN5C[C@@H](F)C[C@H]5C(=O)O)c(OC)n4)c3Cl)c2Cl)ccc1CN1CCC(C(F)F)C1 (stereo partly shown) [Compound 81]
10 | < 10 | COc1nc(OCc2cccc(-c3cccc(COc4ccc(CNC(CO)CO)c(OC)n4)c3Cl)c2Cl)ccc1CNC(CO)CO [Compound 68]

The next lines start with the molecule.

Row | SMILES | IC50 [nM]
11 | COc1nc(OCc2cccc(-c3cccc(COc4ccc(CN5C[C@@H](O)C[C@H]5C(=O)O)c(OC)n4)c3C)c2C)ccc1CN1CC[C@H](O)C1 [Compound 47] | < 10
12 | COc1nc(OCc2cccc(-c3cccc(COc4ccc(CNC5(C(=O)O)CC5)c(OC)n4)c3C)c2C)ccc1CNC1(C(=O)O)CC1 [Compound 37] | < 10
13 | COc1nc(OCc2cccc(-c3cccc(COc4ccc(CNCC(C)(C)O)c(OC)n4)c3C)c2C)ccc1CNCC(C)(C)O [Compound 20] | 10 to 100
14 | Cc1c(COc2ccc3[nH]c(CO)cc3n2)cccc1-c1cccc(COc2ccc3[nH]c(CO)cc3n2)c1C [Compound 32] | > 1000
15 | COc1nc(OCc2cccc(-c3csc(COc4ccc(CNCCNC(C)=O)c(OC)n4)c3C)c2C)ccc1CNCCNC(C)=O [Compound 36] | < 10
16 | COc1nc(OCc2cccc(-c3cccc(COc4ccc(CNCCNC(C)=O)c(OC)n4)c3Cl)c2Cl)ccc1CNCCNC(C)=O [Compound 43] | < 10
17 | COc1nc(OCc2cccc(-n3nnc(COc4ccc(CNCCNC(C)=O)c(OC)n4)c3C)c2C)ccc1CNCCNC(C)=O [Compound 31] | > 1000
18 | COc1nc(OCc2cccc(-c3cccc(COc4ccc(CN5CC[C@@H](NC(C)=O)C5)c(OC)n4)c3C)c2C)ccc1CN1CC[C@@H](NC(C)=O)C1 [Compound 52] | 10 to 100
19 | COc1nc(OCc2cccc(-c3cccc(COc4ccc(CN)c(OC)n4)c3C)c2C)ccc1CN [Compound 6, ((((2,2′-dimethyl-[1,1′-biphenyl)-3,3′-diyl)bis (methylene))bis (oxo))bis (2-methoxypyridine-6,3-diyl)) dimethylamine] | 10 to 100
20 | COc1nc(OCc2cccc(-n3c(C)nc(COc4ccc(CNCCNC(C)=O)c(OC)n4)c3C)c2C)ccc1CNCCNC(C)=O [Compound 44] | > 1000
21 | COc1nc(OCc2cccc(-c3cccc(COc4ccc(CN5C[C@@H](O)C[C@H]5C(=O)O)c(OC)n4)c3Cl)c2Cl)ccc1CN1C[C@@H](O)C[C@H]1C(=O)O [Compound 46] | < 10
22 | COc1nc(OCc2cccc(-c3cccc(COc4ccc(CNC5CCCCC5O)c(OC)n4)c3C)c2C)ccc1CNC1CCCCC1O (stereo not shown) [Compound 24] | 10 to 100
